Reference: ChEMBL document CHEMBL2417456, “Hit identification and optimization in virtual screening: practical recommendations based on a critical literature analysis” (J Med Chem, 2013)

Assays:
[1] = Inhibition of HIV1 His6-tagged integrase-FLAG-tagged LEDGF/p75 (unknown origin) interaction after 1 hr by AlphaScreen assay
[2] = tested on: Human immunodeficiency virus 1; assay: Antiviral activity against HIV1 infected in human MT2 cells assessed as protection from viral replication; format: functional, organism-based; settings: Human immunodeficiency virus 1, MT2

| SMILES | IC50 [1] | EC50 [2] |
| --- | --- | --- |
| O=C(O)/C(O)=C/C(=O)c1cn(Cc2ccc(F)cc2)c2ccccc12 | 100 µM | – |
| O=C(O)/C(O)=C/C(=O)c1c[nH]c2cccc(O)c12 | 35 µM | – |
| COc1ccc(Cc2nnc(Nc3ccc(C)cc3)o2)cc1OC | – | > 100 µM |
